According to publication PMC9555310, “Novel inhibitors and activity-based probes targeting serine proteases” (Frontiers in Chemistry, 2022):
Several values for one entry are separate records, joined by “and”; a condition that tells them apart may be missing. Equal entries are not always repeated. Where two headings read alike, the source gives them in different places.

Assays:
plasmin [1] = molecular target: T1, plasmin (Homo sapiens, UniProt P00747); experiment: Irreversible inhibition kinetics of plasmin (fluorogenic substrate progress curves); format: biochemical; conditions: PBS pH 7.4, 37°C, mean ± SD (n=2)
T1 construct: purchased Sigma-Aldrich (supplement); R&D Systems; host or cells: human plasma
T1 sequence (P00747 581-810 limits assumed): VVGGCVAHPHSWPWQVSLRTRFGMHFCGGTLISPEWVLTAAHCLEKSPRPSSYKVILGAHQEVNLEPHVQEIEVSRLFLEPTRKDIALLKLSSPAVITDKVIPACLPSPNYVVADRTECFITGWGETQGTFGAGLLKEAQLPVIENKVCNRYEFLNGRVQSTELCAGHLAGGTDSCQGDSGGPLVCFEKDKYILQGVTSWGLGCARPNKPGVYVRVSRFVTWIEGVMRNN
T1 sequence (P00747 97-580 partner limits assumed): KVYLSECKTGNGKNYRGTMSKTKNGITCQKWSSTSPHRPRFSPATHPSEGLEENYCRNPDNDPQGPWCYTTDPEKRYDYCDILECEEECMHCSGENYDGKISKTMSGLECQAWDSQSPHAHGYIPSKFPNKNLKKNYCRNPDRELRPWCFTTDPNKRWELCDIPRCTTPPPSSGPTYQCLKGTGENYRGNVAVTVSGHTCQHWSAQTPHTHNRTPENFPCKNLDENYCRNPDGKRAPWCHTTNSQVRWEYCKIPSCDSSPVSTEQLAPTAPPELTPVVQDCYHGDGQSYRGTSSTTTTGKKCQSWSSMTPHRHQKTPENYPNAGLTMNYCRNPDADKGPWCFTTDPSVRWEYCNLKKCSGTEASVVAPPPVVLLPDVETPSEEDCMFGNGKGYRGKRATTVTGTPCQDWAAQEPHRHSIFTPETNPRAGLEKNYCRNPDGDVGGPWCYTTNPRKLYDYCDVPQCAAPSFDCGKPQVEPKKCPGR
Description: A range of inhibitor concentrations were prepared from a 10 mM stock solution of the test compounds (NAP533, NAP559, NAP800, NAP830, NAP849, and NAP962) in N, N-dimethylformamide (DMF). Recombinant protease activities were assayed using the cognate fluorogenic substrates as follows: trypsin (Z-Gly-Gly-Arg-NHMec), thrombin (Boc-Val-Pro-Arg-NHMec), plasmin (Boc-Val-Leu-Lys-NHMec), human neutrophil elastase (MeO-Succinyl-Ala-Ala-Pro-Val-NHMec), and chymotrypsin (Succinyl-Ala-Ala-Pro-Phe-NHMec). Each substrate was used at a final concentration of 50 μM, in the appropriate buffer for each protease. All inhibition assays were performed in microtiter plates maintained at 37°C in a final volume of 100 μL. The reaction was initiated by the addition of each protease (approx. 0.01 μg/well) and the rate of substrate hydrolysis was recorded continuously at 37°C, over a 60 min period, by measuring the rate of increase in fluorescence (at λex 360 nm, λem 480 nm) using a FLUOstar Optima microplate reader (BMG Labtech).
The resultant inhibition progress curves obtained for each inhibitor were analyzed by the kinetic models developed by [Tian and Tsou (1982)] and [Walker and Elmore (1984)], for irreversible inhibitors, with curve fitting being achieved using GraFit (Erithacus Software), as described previously ([Ferguson et al., 2016]).
FIGURE 4 Progress curves for (A), chymotrypsin-catalysed hydrolysis of Succinyl-Ala-Ala-Pro-Phe-NHMec, in the presence of varying concentrations of NAP849. (B), NE-catalysed hydrolysis of MeO-succinyl-Ala-Ala-Pro-Val-NHMec, in the presence of varying concentrations of NAP800. (C) Trypsin-catalysed of Z-Gly-Gly-Arg-NHMec, in the presence of NAP830. (D) Plasmin-catalysed hydrolysis of Boc-Val-Leu-Lys-NHMec, in the presence of varying concentrations of NAP962. Assays were carried out in PBS, pH 7.4, at 37°C, in the presence of a range of inhibitor concentrations (0.25–50 μM) and a fixed concentration (50 μM) of the appropriate substrate for each protease.
The “product progress” curves for substrate hydrolysis in the presence of an inhibitor (Figure 4) are indicative of the action of irreversible inhibitors operating through the kinetic scheme illustrated in Figure 6. In this scheme, the formation of the reversible enzyme–inhibitor complex (EI) is zcharacterized by the inhibitor constant K i. This is converted into the covalent/irreversible complex (E-I) characterized by a first-order rate constant k 3. The overall second-order rate constant for the inactivation of E by I is given by the ratio k 3/K i ([Walker and Elmore, 1984]; [Tsou, 1988]).
Fluorogenic enzyme assays were carried out on a FLUOstar OPTIMA spectro-fluorimeter (BMG Labtech) with analysis performed on MARS Data Analysis Software (BMG Labtech). Black 96-well microtitre plates were supplied by Thermo Scientific. Trypsin from porcine pancreas, plasmin from human plasma and chymotrypsin from bovine pancreas were obtained from Sigma-Aldrich. Thrombin and Cathepsin B were supplied by R and D Systems. Human Neutrophil Elastase was supplied by Calbiochem. Fluorogenic substrates Z-Gly-Gly-Arg-NHMec, Succinyl-Ala-Ala-Pro-Phe-NHMec and MeO-Succinyl-Ala-Ala-Pro-Val-NHMec were supplied by Sigma-Aldrich. Boc-Val-Pro-Arg-NHMec was obtained from R and D Systems and Boc-Val-Leu-Lys-NHMec was supplied by PeptaNova. Phosphate Buffered Saline tablets were acquired from Sigma- Aldrich.
Protease inactivation by each of the compounds under study was evaluated using a fluorogenic enzyme assays. Protease-substrate combinations used as detailed in Section 2. Inhibitors were made up as 10 mM stock solutions in either DMF or DMSO, then diluted with PBS (pH 7.4) to give appropriate working concentrations. A final volume of 100 μL was used per well. Substrate (50 μM final concentration) was added to a black 96-well microtitre plate (Thermo Scientific), in duplicate, followed by addition of inhibitor, in such a manner to give the required final concentration. […]

chymotrypsin [2] = molecular target: T2, chymotrypsin (Bos taurus, UniProt P00766); experiment: Off-target study, residual activity after 2 min pre-incubation: chymotrypsin; format: biochemical, bovine; conditions: highest concentration (50 μM); 2 min incubation, PBS pH 7.4, 37°C
T2 construct: purchased Sigma-Aldrich (supplement); Calbiochem; host or cells: bovine pancreas
Description: (§1) FIGURE 5 Results of “off-target“ studies. NAP849 (A), NAP800 (B) and NAP830 (C) were tested against trypsin, chymotrypsin, and NE. Samples (approx. 0.01 μg) of each protease were incubated with the indicated concentrations of test compound for 2 min, in PBS, pH 7.4, at 37°C. (D) NAP858, NAP962 and NAP849 were tested against cathepsin B at the indicated concentrations in 0.1 M MES, pH 6.1, containing 1 mM EDTA, for 2 min, at 37°C. Aliquots (approx. 10 μL) of each incubation sample were then added to a fresh sample (990 μL) of PBS for the serine proteases and MES for cathepsin B, containing the appropriate substrate for each protease, to measure their residual activity. Controls incubations were performed in the absence of test compound, but in the presence of an appropriate volume of DMF vehicle used to prepare stock solutions of each inhibitor under study.
(§2) Two elements were investigated regarding possible “off-target” effects–determining the extent of cross-reactivity of each of the new putative ABPs between the various serine protease family members and assessing their collateral inhibitory action against another mechanistic class–the cysteine proteases, using cathepsin B (CTSB) as an exemplar.
(§3) For assays requiring a pre-incubation step enzyme and inhibitor in assay buffer were incubated together, at 37 °C, for 2 min, with gentle agitation. The reaction mixture was then aliquoted (50 μL) in duplicate on a black 96-well microtitre plate followed by addition of substrate to make a final concentration of 50 μM in a total volume of 100 μL. The fluorescence production was then measured as described for the previous procedure.
(§4) Figure ST1. Results of “off-target” studies. NAP559 and NAP533 were tested against chymotrypsin, and NE. Samples (approx. 0.01 mg) of each protease were incubated with the indicated concentrations of test compound for 2 min, in PBS, pH 7.4, at 37 °C. Aliquots (approx. 10 µL) of each incubation sample were then added to a fresh sample (990 µL) of PBS containing the appropriate substrate for each protease, to measure their residual activity. Controls incubations were performed in the absence of test compound, but in the presence of an appropriate volume of DMF vehicle used to prepare stock solutions of each inhibitor under study.

neutrophil elastase (NE) = molecular target: T3, neutrophil elastase (NE) (Homo sapiens, UniProt P08246); experiment: Off-target study, residual activity after 2 min pre-incubation: NE; format: biochemical; conditions: highest concentration (50 μM); 2 min incubation, PBS pH 7.4, 37°C
T3 construct: purchased Calbiochem
T3 sequence (P08246 30-267): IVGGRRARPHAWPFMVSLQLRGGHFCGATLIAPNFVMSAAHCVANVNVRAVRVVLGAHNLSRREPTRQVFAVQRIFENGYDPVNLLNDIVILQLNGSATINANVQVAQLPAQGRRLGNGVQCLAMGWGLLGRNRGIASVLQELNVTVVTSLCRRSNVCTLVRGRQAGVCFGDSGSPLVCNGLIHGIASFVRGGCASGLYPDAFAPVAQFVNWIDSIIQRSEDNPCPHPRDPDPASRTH
Description: as §1, §2, §3, §4

cathepsin B (CTSB) = molecular target: T4, cathepsin B (CTSB) (Homo sapiens, UniProt P07858); experiment: Off-target study, residual activity after 2 min pre-incubation: cathepsin B; format: biochemical; conditions: 25 and 50 μM, 0.1 M MES pH 6.1, 1 mM EDTA, 37°C
T4 construct: purchased R and D Systems
Description: as §1, §2, §3
Assays with Cathepsin B required a pre-activation step of the protease prior to use in the fluorogenic enzyme assays. Cathepsin B was diluted to 10 μg/ml in activation buffer (0.1 M MES, pH 6.1, containing 1 mM EDTA and 2 mM DTT) and left to stand at room temperature for 15 minutes. Activated Cathepsin B was then diluted (1:50 to give 10 ng/50 μl) with assay buffer (activation buffer minus the DTT) prior to use as described previously.

thrombin = molecular target: T5, thrombin (Homo sapiens, UniProt P00734); experiment: Activity-based profiling of thrombin (SDS-PAGE, streptavidin-HRP western blot); format: binding; conditions: 30 min, 37°C; heavy (catalytic) chain; recapitulated in Figure 8B
T5 construct: apparent molecular mass of 31 kDa, corresponding to the heavy (catalytic) chain of the protease; purchased R&D Systems
Description: (§5) Samples of recombinant protease (trypsin, plasmin, thrombin, chymotrypsin, or HNE, as indicated in the relevant figure legends) were treated with each of the newly synthesized compounds at a concentration of 50 μM, for 30 min, at 37°C. A control sample (no ABP) was prepared by treating the recombinant protease with solvent vehicle (DMF) only, used to prepare the stock solution of each ABP. Samples were also pre-treated (±90°C for 30 min) before being incubated with each putative ABP. With trypsin and thrombin, further samples were prepared where Z-Arg^P-(OPh)2 or NAP559, respectively, was added 30 min prior to the addition of the ABP under examination. All treated samples were then denatured with SDS containing reducing treatment buffer (10 min at 95°C), followed by resolution by SDS-PAGE and subjected to Western blotting. Resolved proteins were then transferred onto the nitrocellulose membrane and labeled with streptavidin-HRP. The ABP–protease complex was then visualized following treatment with Luminata Forte HRP substrate.
(§6) FIGURE 8 Activity Based Profiling of Trypsin-like serine proteases. (A) trypsin was treated (±) with NAP830, for 30 min, at 37°C (± pretreatment with Z-Arg^P-(OPh)2). (B) thrombin (1 […]) was pre-treated with various concentrations of NAP559 (30 min, at 37°C) followed by treatment (±) with NAP858 for 30 min, at 37°C. (C) Plasmin was treated in turn with QUBTL1, NAP962 and NAP830, (± pre-heat inactivation at 95°C, for 10 min) for 30 min, at 37°C. […]
(§7) Following transfer, the extra protein binding sites on the membrane were blocked by addition of 3% (w/v) BSA in TBST (20 mM Tris, 137 mM NaCl, 1% (v/v) Tween 20, pH 7.6) and agitated gently at room temperature for 30 minutes. The biotin-labelled proteases were then detected by addition of Streptavidin-HRP (Vector Laboratories) in 3% (w/v) BSA in TBST at a concentration of 1:20000, for 1 hour at room temperature. […]

trypsin = molecular target: T6, trypsin (Sus scrofa, UniProt P00761); conditions: cited from earlier work
T6 construct: purchased Sigma-Aldrich; host or cells: porcine pancreas
T6 sequence (P00761 9-231): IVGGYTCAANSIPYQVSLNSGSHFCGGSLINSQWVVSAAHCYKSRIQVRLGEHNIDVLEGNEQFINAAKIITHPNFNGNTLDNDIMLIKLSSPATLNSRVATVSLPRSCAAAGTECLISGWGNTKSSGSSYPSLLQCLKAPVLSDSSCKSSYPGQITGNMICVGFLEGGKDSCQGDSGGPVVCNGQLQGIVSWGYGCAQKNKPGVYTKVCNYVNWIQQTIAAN

chymotrypsin [3] = molecular target: T2, chymotrypsin; parameters: method as in Gilmore et al. (2009); conditions: ref Gilmore et al. (2009); cited from earlier work
plasmin [4] = molecular target: T1, plasmin; experiment: Activity-based profiling of plasmin (SDS-PAGE, streptavidin-HRP western blot); format: binding; conditions: 50 μM, 30 min, 37°C
Description: as §5, §6, §7

plasmin [5] = molecular target: T1, plasmin; parameters: method as in Martin and Walker (2017); conditions: mean ± SD (n=2), ref Martin and Walker (2017); cited from earlier work

With `CC(C)[C@H](NC(=O)CN(Cc1ccccc1)C(=O)CN(CCCCN)C(=O)ON1C(=O)CCC1=O)C(N)=O` [NAP533, Succinimidoyl-CO-NLys-NPhe-Val-NH2] the Ki (plasmin [1]; Boc-Val-Leu-Lys-NHMec 50 μM) was 2200 nM, the “k 3” value (plasmin [1]; first-order rate constant) was 0.4 (± 0.04) min^−1 and the “k 3 / K i” value (plasmin [1]; second-order rate constant of inactivation) was 1.7 (± 0.3) × 10^5 M^−1 min^−1. The inhibition of chymotrypsin (chymotrypsin [2]) was < 5 % of control and the “inhibition of NE” value (neutrophil elastase (NE)) was < 5 % of control.
For `N=C(N)NCCCN(CC(=O)NCC(=O)NCC(=O)NCCCOCCOCCOCCCNC(=O)CCCCC1SCC2NC(=O)NC21)C(=O)ON1C(=O)CCC1=O` (centres unmarked) [NAP858], the “inhibitory activity against CTSB” value (cathepsin B (CTSB)) is given as “none of the three carbamates tested exhibited any inhibitory activity against CTSB”, the “labelling of thrombin by ABP (western blot)” value (thrombin) is given as “detection of a band with an apparent molecular mass of 31 kDa” and the “k 3” value (trypsin; ref Ferguson et al. (2022)) is given as 0.5 (+ 0.1) min^−1. For the same molecule, the “k 3 / K i” value (trypsin; ref Ferguson et al. (2022)) was 34300 M⁻¹ s⁻¹ and 35000 M⁻¹ s⁻¹.
For `O=C(CCCCC1SCC2NC(=O)NC21)NCCCOCCOCCOCCCNC(=O)CCC(=O)NC(Cc1ccccc1)P(=O)(Oc1ccccc1)Oc1ccccc1` (centres unmarked) [QUBCL1, biotin-PEG-succinyl-Phe^P-(OPh)2], the Ki (chymotrypsin [3]) is given as 1080 nM, the “k 3” value (chymotrypsin [3]) is given as 0.119 min⁻¹ and the “k 3 / K i” value (chymotrypsin [3]) is given as 1850 M⁻¹ s⁻¹.
For `N=C(N)NCCCC(NC(=O)CCC(=O)NCCCOCCOCCOCCCNC(=O)CCCCC1SCC2NC(=O)NC21)P(=O)(Oc1ccccc1)Oc1ccccc1` (centres unmarked) [QUBTL1, biotin-PEG-succinyl-arginine diphenyl phosphonate], the “labelling of plasmin by ABP (western blot)” value (plasmin [4]) is given as “failed to detect any plasmin band”, the Ki (plasmin [5]) is given as 89 nM and the “k 3” value (plasmin [5]) is given as 0.3 (± 0.05) min^−1. For the same molecule, the “k 3 / K i” value (plasmin [5]) was 3.1 (± 0.2) × 10^6 M^−1 min^−1.
In the case of “Biotin-PEG-Succinyl-Lys^P-(OPh)2 [QUBTL2]”, the “k 3 / K i” value (trypsin; ref Martin and Walker (2017)) is given as 18300 M⁻¹ s⁻¹.
